Data from patent US7541351B2, “Compounds for the treatment of hepatitis C” (Bristol-Myers Squibb Company, priority 2007, dated 2009).
Like-named read-outs stand apart in the source and are kept apart here.

Assays:
[1] = target: T1, HCV NS5B RdRp genotype 1b (Hepatitis C virus genotype 1b, UniProt Q9WMX2); assay: Modified HCV NS5B RdRp enzyme assay (preincubation protocol); type: biochemical
T1 construct: The protein was expressed with an 18 amino acid C-terminal truncation to enhance the solubility; made in house; host or cells: E. coli BL21 (DE3)
T1 sequence (Q9WMX2 2420-2992): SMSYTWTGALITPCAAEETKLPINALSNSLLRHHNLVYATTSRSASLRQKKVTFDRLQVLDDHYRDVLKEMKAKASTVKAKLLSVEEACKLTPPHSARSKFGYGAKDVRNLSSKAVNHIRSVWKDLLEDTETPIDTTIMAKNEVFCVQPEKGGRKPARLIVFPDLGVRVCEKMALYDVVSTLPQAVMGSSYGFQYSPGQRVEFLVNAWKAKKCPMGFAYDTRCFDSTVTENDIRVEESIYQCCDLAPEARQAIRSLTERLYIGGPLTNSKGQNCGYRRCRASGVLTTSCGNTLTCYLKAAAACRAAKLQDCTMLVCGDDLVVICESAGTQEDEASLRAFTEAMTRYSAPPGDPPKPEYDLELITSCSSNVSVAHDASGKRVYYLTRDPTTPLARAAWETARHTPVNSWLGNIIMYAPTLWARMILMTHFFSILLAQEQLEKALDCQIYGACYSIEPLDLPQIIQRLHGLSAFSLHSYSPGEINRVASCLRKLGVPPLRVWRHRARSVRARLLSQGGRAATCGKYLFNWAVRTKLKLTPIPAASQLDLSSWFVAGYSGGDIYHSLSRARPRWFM
Procedure: HCV NS5B RdRp cloning, expression, and purification. The cDNA encoding the NS5B protein of HCV, genotype 1b, was cloned into the pET21a expression vector. The protein was expressed with an 18 amino acid C-terminal truncation to enhance the solubility. The E. coli competent cell line BL21 (DE3) was used for expression of the protein. Cultures were grown at 37° C. for ˜4 hours until the cultures reached an optical density of 2.0 at 600 nm. The cultures were cooled to 20° C. and induced with 1 mM IPTG. Fresh ampicillin was added to a final concentration of 50 μg/ml and the cells were grown overnight at 20° C.
Cell pellets (3 L) were lysed for purification to yield 15-24 mgs of purified NS5B. The lysis buffer consisted of 20 mM Tris-HCl, pH 7.4, 500 mM NaCl, 0.5% triton X-100, 1 mM DTT, 1 mM EDTA, 20% glycerol, 0.5 mg/ml lysozyme, 10 mM MgCl2, 15 ug/ml deoxyribonuclease I, and Complete TM protease inhibitor tablets (Roche). After addition of the lysis buffer, frozen cell pellets were resuspended using a tissue homogenizer. To reduce the viscosity of the sample, aliquots of the lysate were sonicated on ice using a microtip attached to a Branson sonicator. The sonicated lysate was centrifuged at 100,000×g for 1 hr at 4° C. and filtered through a 0.2 μm filter unit (Corning).
The protein was purified using three sequential chromatography steps: Heparin sepharose CL-6B, polyU sepharose 4B, and Hitrap SP sepharose (Pharmacia). The chromatography buffers were identical to the lysis buffer but contained no lysozyme, deoxyribonuclease I, MgCl2 or protease inhibitor and the NaCl concentration of the buffer was adjusted according to the requirements for charging the protein onto the column. Each column was eluted with a NaCl gradient which varied in length from 5-50 column volumes depending on the column type. After the final chromatography step, the resulting purity of the enzyme is >90% based on SDS-PAGE analysis. The enzyme was aliquoted and stored at −80° C.
Standard HCV NS5B RdRp enzyme assay. HCV RdRp genotype 1b assays were run in a final volume of 60 μl in 96 well plates (Costar 3912). The assay buffer is composed of 20 mM Hepes, pH 7.5, 2.5 mM KCl, 2.5 mM MgCl2, 1 mM DTT, 1.6 U RNAse inhibitor (Promega N2515), 0.1 mg/ml BSA (Promega R3961), and 2% glycerol. All compounds were serially diluted (3-fold) in DMSO and diluted further in water such that the final concentration of DMSO in the assay was 2%. HCV RdRp genotype 1b enzyme was used at a final concentration of 28 nM. A polyA template was used at 6 nM, and a biotinylated oligo-dT 12 primer was used at 180 nM final concentration. Template was obtained commercially (Amersham 27-4110). Biotinylated primer was prepared by Sigma Genosys. 3H-UTP was used at 0.6 μCi (0.29 μM total UTP). Reactions were initiated by the addition of enzyme, incubated at 30° C. for 60 min, and stopped by adding 25 μl of 50 mM EDTA containing SPA beads (4 μg/μl, Amersham RPNQ 0007). Plates were read on a Packard Top Count NXT after >1 hr incubation at room temperature.
Modified HCV NS5B RdRp enzyme assay. A modified enzyme assay was performed essentially as described for the standard enzyme assay except for the following: The biotinylated oligo dT12 primer was precaptured on streptavidin-coated SPA beads by mixing primer and beads in assay buffer and incubating at room temperature for one hour. Unbound primer was removed after centrifugation. The primer-bound beads were resuspended in 20 mM Hepes buffer, pH 7.5 and used in the assay at final concentrations of 20 nM primer and 0.67 μg/μl beads. Order of addition in the assay: enzyme (14 nM) was added to diluted compound followed by the addition of a mixture of template (0.2 nM), 3H-UTP (0.6 μCi, 0.29 μM), and primer-bound beads, to initiate the reaction; concentrations given are final. Reactions were allowed to proceed for 4 hours at 30° C.
IC50 values for compounds were determined using seven different [I]. […]

HCV replicon cells = assay: HCV replicon FRET assay; type: cell-based
Text: FRET Assay Preparation. To perform the HCV FRET screening assay, 96-well cell culture plates were used. The FRET peptide (Anaspec, Inc.) (Taliani et al., Anal. Biochem. 1996, 240, 60-67) contains a fluorescence donor, EDANS, near one end of the peptide and an acceptor, DABCYL, near the other end. The fluorescence of the peptide is quenched by […] resonance energy transfer (RET) between the donor and the acceptor, but as the NS3 protease cleaves the peptide the products are released from RET quenching and the fluorescence of the donor becomes apparent. The assay reagent was made as follows: 5× cell Luciferase cell culture lysis reagent from Promega (#E153A) diluted to 1× with dH2O, NaCl added to 150 mM final, the FRET peptide diluted to 20 μM final from a 2 mM stock.
To prepare plates, HCV replicon cells, with or without a Renilla luciferase reporter gene, were trypsinized and placed into each well of a 96-well plate with titrated test compounds added in columns 3 through 12; columns 1 and 2 contained a control compound (HCV protease inhibitor), and the bottom row contained cells without compound. The plates were then placed in a CO2 incubator at 37° C.
Assays. Subsequent to addition of the test compounds described above (FRET Assay Preparation), at various times the plate was removed and Alamar blue solution (Trek Diagnostics, #00-100) was added per well as a measure of cellular toxicity. After reading in a Cytoflour 4000 instrument (PE Biosystems), plates were rinsed with PBS and then used for FRET assay by the addition of 30 ul of the FRET peptide assay reagent described above (FRET Assay Preparation) per well. The plate was then placed into the Cytoflour 4000 instrument which had been set to 340 excite/490 emission, automatic mode for 20 cycles and the plate read in a kinetic mode. Typically, the signal to noise using an endpoint analysis after the reads was at least three-fold. Alternatively, after Alamar blue reading, plates were rinsed with PBS, 50 ul of DMEM (high glucose) without phenol red was added and plates were then used for luciferase assay using the Promega Dual-Glo Luciferase Assay System.
Compound analysis was determined by quantification of the relative HCV replicon inhibition and the relative cytotoxicity values. To calculate cytoxicity values, the average Alamar Blue fluorescence signals from the control wells were set as 100% non-toxic. The individual signals in each of the compound test wells were then divided by the average control signal and multiplied by 100% to determine […]. To calculate the HCV replicon inhibition values, an average background value was obtained from the two wells containing the highest amount of HCV protease inhibitor at the end of the assay period. These numbers were similar to those obtained from naïve Huh-7 cells.
The background numbers were then subtracted from the average signal obtained from the control wells and this number was used as 100% activity. The individual signals in each of the compound test wells were then divided by the averaged control values after background subtraction and multiplied by 100% to determine percent activity. EC50 values for a protease inhibitor titration were calculated as the concentration which caused a 50% reduction in FRET or luciferase activity. The two numbers generated for the compound plate, percent cytoxicity and percent activity were used to determine compounds of interest for further analysis.

## COc1ccc2c(c1)C=C(C(=O)N1CC3CCC(C1)N3C(=O)OC(C)(C)C)Cn1c-2c(C2CCCCC2)c2ccc(C(=O)NS(=O)(=O)N(C)C)cc21
[1]
  IC50: 1 to 500 nM
HCV replicon cells; Hepatitis C virus
  EC50: 1 to 500 nM

## COc1ccc2c(c1)C=C(C(=O)N1CC3CCC(C1)N3)Cn1c-2c(C2CCCCC2)c2ccc(C(=O)NS(=O)(=O)N(C)C)cc21
[1]
  IC50: 1 to 500 nM
HCV replicon cells; Hepatitis C virus
  EC50: 1 to 500 nM

## COc1ccc2c(c1)CC(C(=O)N1C3CCC1CN(C)C3)Cn1c-2c(C2CCCCC2)c2ccc(C(=O)NS(=O)(=O)N(C)C)cc21 (stereo not drawn)
[1]
  IC50: 1 to 500 nM
HCV replicon cells; Hepatitis C virus
  EC50: 1 to 500 nM

## COc1ccc2c(c1)C=C(C(=O)N1CC3CCC(C1)N3C)Cn1c-2c(C2CCCCC2)c2ccc(C(=O)NS(=O)(=O)N(C)C)cc21
[1]
  IC50: 1 to 500 nM
HCV replicon cells; Hepatitis C virus
  EC50: 1 to 500 nM

## COc1cccc2c1C=C(C(=O)N1C3CCC1CN(C)C3)Cn1c-2c(C2CCCCC2)c2ccc(C(=O)NS(=O)(=O)N(C)C)cc21
[1]
  IC50: 1 to 500 nM
HCV replicon cells; Hepatitis C virus
  EC50: 1 to 500 nM

## COc1cccc2c1C=C(C(=O)N1CC3CCC(C1)N3C(=O)OC(C)(C)C)Cn1c-2c(C2CCCCC2)c2ccc(C(=O)NS(=O)(=O)N(C)C)cc21
[1]
  IC50: 1 to 500 nM
HCV replicon cells; Hepatitis C virus
  EC50: 1 to 500 nM

## COc1cccc2c1C=C(C(=O)N1CC3CCC(C1)N3)Cn1c-2c(C2CCCCC2)c2ccc(C(=O)NS(=O)(=O)N(C)C)cc21
[1]
  IC50: 1 to 500 nM
HCV replicon cells; Hepatitis C virus
  EC50: 1 to 500 nM

## COc1cccc2c1C=C(C(=O)N1CC3CCC(C1)N3C)Cn1c-2c(C2CCCCC2)c2ccc(C(=O)NS(=O)(=O)N(C)C)cc21
[1]
  IC50: 1 to 500 nM
HCV replicon cells; Hepatitis C virus
  EC50: 1 to 500 nM

## COc1ccc2c(c1)C=C(C(=O)N1C3CCC1CN(C1CC1)C3)Cn1c-2c(C2CCCCC2)c2ccc(C(=O)NS(=O)(=O)N(C)C)cc21
[1]
  IC50: < 20 nM
HCV replicon cells; Hepatitis C virus
  EC50: 1 to 500 nM

## COC(=O)c1ccc2c(C3CCCCC3)c3n(c2c1)CC(C(=O)N1C2CCC1CN(C)C2)=Cc1c(OC(F)(F)F)cccc1-3
[1]
  IC50: > 500 nM
HCV replicon cells; Hepatitis C virus
  EC50: > 500 nM

## CN1CC2CCC(C1)N2C(=O)C1=Cc2c(OC(C)(F)F)cccc2-c2c(C3CCCCC3)c3ccc(C(=O)NS(=O)(=O)N(C)C)cc3n2C1
[1]
  IC50: > 500 nM
HCV replicon cells; Hepatitis C virus
  EC50: > 500 nM

## COc1ccc2c(c1)C=C(C(=O)N1C3CCC1CN(C)C3)Cn1c-2c(C2CCCCC2)c2ccc(C(=O)NS(=O)(=O)C3CC3)cc21
[1]
  IC50: 1 to 500 nM
HCV replicon cells; Hepatitis C virus
  EC50: 1 to 500 nM

## COC(=O)c1ccc2c(C3CCCCC3)c3n(c2c1)CC(C(=O)N1C2CCC1CN(C)C2)=Cc1cc(OC)ccc1-3
[1]
  IC50: > 500 nM
HCV replicon cells; Hepatitis C virus
  EC50: > 500 nM

## COc1ccc2c(c1)C=C(C(=O)N1C3CCC1CN(C)C3)Cn1c-2c(C2CCCCC2)c2ccc(C(=O)O)cc21
[1]
  IC50: 1 to 500 nM
HCV replicon cells; Hepatitis C virus
  EC50: 1 to 500 nM

## COc1ccc2c(c1)C=C(C(=O)N1C3CCC1CN(C)C3)Cn1c-2c(C2CCCCC2)c2ccc(C(=O)NS(=O)(=O)C(C)C)cc21
[1]
  IC50: 1 to 500 nM
HCV replicon cells; Hepatitis C virus
  EC50: 1 to 500 nM

## CCC(C)S(=O)(=O)NC(=O)c1ccc2c(C3CCCCC3)c3n(c2c1)CC(C(=O)N1C2CCC1CN(C)C2)=Cc1cc(OC)ccc1-3 (stereo not drawn)
[1]
  IC50: 1 to 500 nM
HCV replicon cells; Hepatitis C virus
  EC50: 1 to 500 nM

## COc1ccc2c(c1)C=C(C(=O)N1C3CCC1CN(C)C3)Cn1c-2c(C2CCCCC2)c2ccc(C(=O)NS(=O)(=O)N(C)C)cc21 [drawing 16]
[1]
  IC50: 1 to 500 nM
HCV replicon cells
  EC50: 1 to 500 nM

## COc1ccc2c(c1)C=C(C(=O)N1C3CCC1CN(C)C3)Cn1c-2c(C2CCCCC2)c2ccc(C(=O)NS(=O)(=O)N(C)C)cc21 [drawing 25]
[1]
  IC50: 1 to 500 nM
HCV replicon cells; Hepatitis C virus
  EC50: 1 to 500 nM
